Test results published in PMC12673918, “Design, Synthesis, and Selective Antiproliferative Activity of Indolizine Derivatives as Microtubule Destabilizers” (Archiv Der Pharmazie, 2025).
Like-named read-outs stand apart in the source and are kept apart here.

How the values were obtained:
CAL‐27 (oral carcinoma) = assay: Resazurin cell viability assay, CAL‐27; type: cell-based; details: Homo sapiens, CAL-27; for inhibition at 50 µM: read-out: % Cellular growth inhibition (at 50 µM) CAL‐27
Procedure, shortened: (§1)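 Cells in DMEM/10% FBS, 1 × 10^3 per well, adhered overnight, then treated with compounds (0–50 µM) for 72 h. Viability read as fluorescence (ex 530, em 590 nm) after 4 h with 44 µM resazurin. % growth inhibition at 50 µM and IC50 by nonlinear regression, triplicates.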

[1] = tested on: HGC‐27 (gastric carcinoma); assay: Resazurin cell viability assay, HGC‐27; type: cell-based; details: for decrease in IC50 relative to 7f (HIT): HGC‐27; for inhibition at 50 µM / IC50: Homo sapiens, HGC-27; for inhibition at 50 µM: read-out: % Cellular growth inhibition (at 50 µM) HGC‐27
Procedure, shortened: as §1

tubulin = assay: Tubulin polymerization (inhibition) assay kit; type: biochemical; details: for effect on tubulin polymerization curves (RFU): compounds 5 µM, vs control and paclitaxel; for IC50: n = 2
Procedure: To evaluate the effect of the compounds on tubulin polymerization, the Tubulin Polymerization Assay Kit (Cytoskeleton Inc.) was used according to the manufacturer's instructions. Briefly, 5 µL of the compounds (final concentration ranging from 0.1 to 100 µM) were pipetted per well into a pre‐warmed 96‐well black‐bottom plate at 37°C. After 1 min, 55 µL of the tubulin reaction mix (1X Buffer 1, 0.7X Tubulin Glycerol Buffer, 1 mM GTP, and 2 mg/mL tubulin) was added to each well. Next, after 5 s of shaking, fluorescence detection (excitation: 340–360 nm, emission: 410–460 nm) was performed using a microplate fluorimeter. […] Data were plotted, and IC₅₀ values were determined by nonlinear regression using GraphPad Prism software 9.0.
^c Tubulin polymerization was evaluated using a commercial assay kit, following standard procedures. Compounds were incubated with tubulin, and fluorescence was measured over time to generate kinetic curves and determine the maximum polymerization rate (Vmax). These experiments were carried out in duplicate.

human P2X4 receptor = molecular target: T1, human P2X4 receptor (Homo sapiens, UniProt Q99571); assay: Ca2+‐flux assay for the hP2X4 receptor; type: cell-based; details: read-out: % Inhibition of P2X4R at 10 µM compounds’ concentration
T1 construct: expressed in transfected cells; host or cells: human 1321N1 astrocytoma cells
T1 sequence (Q99571 1-388): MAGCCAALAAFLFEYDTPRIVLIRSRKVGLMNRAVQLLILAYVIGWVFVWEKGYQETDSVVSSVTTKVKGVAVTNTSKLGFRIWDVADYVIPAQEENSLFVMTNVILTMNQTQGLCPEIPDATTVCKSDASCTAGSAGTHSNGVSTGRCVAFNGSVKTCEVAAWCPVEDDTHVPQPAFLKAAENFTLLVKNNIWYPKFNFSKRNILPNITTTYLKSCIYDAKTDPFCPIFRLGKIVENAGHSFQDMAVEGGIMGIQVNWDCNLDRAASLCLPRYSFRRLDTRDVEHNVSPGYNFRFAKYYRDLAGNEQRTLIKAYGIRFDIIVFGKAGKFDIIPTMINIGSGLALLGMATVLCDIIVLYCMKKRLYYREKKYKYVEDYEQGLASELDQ
Procedure: Human 1321N1 astrocytoma cells stably expressing the human P2X4 receptor (generated in‐house) were cultured in Dulbecco's Modified Eagle Medium supplemented with 9% (v/v) FCS, 1% (v/v) Penicillin/Streptomycin (10000 I.U./mL, 10 mg/mL in 0.9% NaCl) and puromycin (1 µg/mL) as a selection antibiotic at 37°C and 5% CO2. Cells were subcultured in cell culture 75 cm^2 flasks and split every 2–4 days (1:5; 1:6) once confluent.
1321N1 cells stably expressing human P2X4 receptor were seeded into black‐walled 96‐well plates (Thermo Fisher Scientific) at 2.5 × 10^4 cells/well and incubated at 37°C for 24–48 h. All test compounds were diluted in assay buffer solution (SBS: 135 mM NaCl; 5 mM KCl; 1 mM MgCl2.6 H2O; 1.8 mM CaCl2; 5.6 mM D‐Glucose; 10 mM HEPES, 0.1% (m/v) BSA, 0.05% (m/v) gelatine, 2.3 mM probenecid). The culture medium was removed, and 100 µL of 4 μM fluorescent Ca^2+ indicator Calbryte520AM in SBS was added and incubated at 37°C for 1 h. The dye solution was then removed, 100 µL of SBS solution and 50 µL of antagonist dilutions (10^–5–10^–9 M) in SBS were added, and the cells were incubated at room temperature for an extra 30 min. Finally, 50 µL of ATP (at a concentration of the previously determined EC50‐ value) was added by using FlexStation 3 Multi‐Mode Microplate Reader (Molecular Devices, San Jose, CA, USA, Software SoftMax7 Pro). The changes in intracellular Ca^2+ ion concentrations were monitored over 200 s (20 s baseline) by measuring the fluorescence signal at λ ex = 494 nm and λ em = 516 nm ([…] cut‐off). The concentration‐dependent decrease in Ca^2+‐flux, expressed as RFU, was plotted against the concentrations of the compounds.

[2] = tested on: CAL‐27, BT‐20 and HGC‐27 cancer cell lines; assay: Resazurin antiproliferative screening, cancer cell line panel; type: cell-based; details: for level of inhibition in the 50 µM screening: 70% inhibition threshold; for IC50: range over CAL‐27, BT‐20, HGC‐27, read-out: IC50 values across cancer cell lines
Procedure: The tongue squamous cell carcinoma cell line CAL‐27 (ATCC CRL‐2095), breast carcinoma BT‐20 (ATCC HTB‐19), gastric carcinoma HGC‐27 (BCRJ Code 0310), and normal oral fibroblast OHMF (culture of fibroblasts derived from human oral healthy mucosa, approved by the Research Ethics Committee of the University of São Paulo, Campus of Ribeirão Preto, Brazil (with protocol number 049) were cultured in DMEM medium (DMEM, Sigma‐Aldrich, St. Louis, MO, USA) supplemented with 10% fetal bovine serum and a solution of penicillin (100 U/mL) and streptomycin (100 μg/mL). The cultures were maintained in a humidified incubator with 5% CO₂ at 37°C.
Cell viability was analyzed using the resazurin assay. For this, cells were seeded in 96‐well plates (1 × 10^3 cells per well) and incubated at 37°C with 5% CO₂ overnight for cell adhesion. Subsequently, the cells were treated with different compounds (0–50 µM) for 72 h. After treatment, the medium was replaced with phenol‐free DMEM medium (Sigma‐Aldrich) containing resazurin at a concentration of 44 µM (Sigma‐Aldrich). After incubation for 4 h at 37°C, fluorescence detection was performed (excitation 530/25 nm, emission 590/35 nm) using a microplate fluorimeter (Synergy 2, Biotek). Initial cell growth inhibition assays were performed in triplicate or quadruplicate, while IC50 determinations were conducted in triplicate. Data were plotted, and IC₅₀ values were determined by nonlinear regression using GraphPad Prism software 9.0.

GNP15 = assay: Resazurin cellular growth inhibition, GNP15; type: cell-based; details: 72 hours, triplicate; read-out: IC50 (nM, Cellular growth inhibition) GNP15 (supplement)
Procedure: ^b IC50 values were determined using the same resazurin-based assay, with fluorescence measurements performed after 72 hours of treatment. These experiments were carried out in triplicate.

[3] = 72 h, mean ± SD, n = 3, read-out: IC50 (nM) CAL‐27
[4] = 72 hours, triplicate, read-out: IC50 (nM, Cellular growth inhibition) CAL-27 (supplement)
[5] = 72 h, mean ± SD, n = 3, read-out: IC50 (nM) HGC‐27
[6] = 72 hours, triplicate, read-out: IC50 (nM, Cellular growth inhibition) HGC-27 (supplement)

SMILES | IC50 (CAL‐27 (oral carcinoma); [3]) [nM] | IC50 (CAL‐27 (oral carcinoma); [4]) [nM] | IC50 [1, 5] [nM] | IC50 [1, 6] [nM] | inhibition at 10 µM (human P2X4 receptor) [%] | inhibition at 50 µM (CAL‐27 (oral carcinoma); 72 h, mean ± SD, n = 3) [%] | decrease in IC50 relative to 7f (HIT) [1] | inhibition at 50 µM ([1]; 72 h, mean ± SD, n = 3) [%] | effect on tubulin polymerization curves (RFU) (tubulin) | IC50 (tubulin) [µM] | level of inhibition in the 50 µM screening [2] | IC50 [2] [nM] | IC50 (GNP15) [nM]
CCCc1cn2cc(OC)ccc2c1C(=O)c1cc(OC)c(OC)c(OC)c1 [Compound 8h, (6‐methoxy‐2‐propylindolizin‐1‐yl)(3,4,5‐trimethoxyphenyl)methanone] | 47 ± 18 | 75 ± 35 | 75 ± 35 | 90 ± 56 | 6 | 90 ± 1.8 | four‐ to sixfold decrease | 70 ± 3.3 | most potent | 10.9 | 89.5% to 73.1 | 47 to 117 | > 50000
COc1ccc2c(C(=O)c3cc(OC)c(OC)c(OC)c3)c(C(F)(F)F)cn2c1 [Compound 8e, [6‐methoxy‐2‐(trifluoromethyl)indolizin‐1‐yl](3,4,5‐trimethoxyphenyl)methanone] | 75 ± 21 | 117 ± 32 | 117 ± 32 | 105 ± 49 | -9 | 76 ± 1.3 | four‐ to sixfold decrease | 53 ± 2.2 | most potent | 9.3 | 89.5% to 73.1 | 47 to 117 | > 50000
COc1ccc2c(C(=O)c3cc(OC)c(OC)c(OC)c3)c(C(C)(C)C)cn2c1 [Compound 8b, [2‐(Tert‐Butyl)‐6‐Methoxyindolizin‐1‐yl](3,4,5‐Trimethoxyphenyl)Methanone] |  |  |  |  | -6 | 84 ± 3.2 |  | 46 ± 6 |  |  | 89.5% to 73.1 |  | 

Further lines, with some results ahead:

IC50 (CAL‐27 (oral carcinoma); [3]) [nM] | IC50 (CAL‐27 (oral carcinoma); [4]) [nM] | IC50 [1, 5] [nM] | IC50 [1, 6] [nM] | inhibition at 10 µM (human P2X4 receptor) [%] | SMILES | inhibition at 50 µM (CAL‐27 (oral carcinoma); 72 h, mean ± SD, n = 3) [%] | decrease in IC50 relative to 7f (HIT) [1] | inhibition at 50 µM ([1]; 72 h, mean ± SD, n = 3) [%] | effect on tubulin polymerization curves (RFU) (tubulin) | IC50 (tubulin) [µM] | level of inhibition in the 50 µM screening [2] | IC50 [2] [nM] | IC50 (GNP15) [nM]
325 ± 92 | 410 ± 212 | 410 ± 212 | 370 ± 28 | 5 | COc1ccc2c(C(=O)c3cc(OC)c(OC)c(OC)c3)c(C)cn2c1 [Compound 8a, (6‐methoxy‐2‐methylindolizin‐1‐yl)(3,4,5‐trimethoxyphenyl)methanone] | 64 ± 2.7 |  | 41 ± 4.3 |  |  |  |  | > 50000
12400 | 11900 | 11900 | 14100 | -3 | COc1ccc2c(C(=O)c3ccc(Cl)c(Cl)c3)ccn2c1 [Compound 7e, (6‐methoxyindolizin‐1‐yl)(3,4‐dichlorophenyl)methanone] | 70 ± 3.8 |  | 68 ± 3.4 |  |  |  |  | > 50000
690 ± 156 | 880 ± 14 | 880 ± 14 | 800 ± 127 | 7 | COc1ccc(-c2cn3cc(OC)ccc3c2C(=O)c2cc(OC)c(OC)c(OC)c2)cc1 [Compound 8k, [6‐methoxy‐2‐(4‐methoxyphenyl)indolizin‐1‐yl](3,4,5‐trimethoxyphenyl)methanone] | 73 ± 4.5 |  | 74 ± 2 |  |  | 89.5% to 73.1 |  | > 50000
300 ± 85 | 465 ± 35 | 465 ± 35 |  | 0 | COc1ccc2c(C(=O)c3cc(OC)c(OC)c(OC)c3)c(-c3ccc(C)cc3)cn2c1 [Compound 8j, [6‐methoxy‐2‐(p ‐tolyl)indolizin‐1‐yl](3,4,5‐trimethoxyphenyl)methanone] | 73 ± 4 |  | 71 ± 2 |  |  | 89.5% to 73.1 |  | > 50000
